Measured values from US10294202B2, “Pyrrolidinones as herbicides” (FMC Corporation, priority 2013, dated 2019).

How the values were obtained:
[1] = tested on: morningglory; experiment: Test A pre-/postemergence herbicide test; assay type: in vivo, Ipomoea spp.
In short: (§1)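 Directed soil spray to seeded pots (preemergence) or spray onto one- to two-leaf seedlings 2–10 cm tall (postemergence); loam/sand substrate throughout. Evaluated visually after about 10 days against untreated plants, 0 = no effect, 100 = complete control.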

[2] = tested on: crabgrass, large; experiment: Test A pre-/postemergence herbicide test; assay type: in vivo, Digitaria sanguinalis
In short: as §1

[3] = tested on: velvetleaf; experiment: Test A pre-/postemergence herbicide test; assay type: in vivo, Abutilon theophrasti
In short: as §1

[4] = tested on: ducksalad; experiment: Test C flooded paddy test; assay type: in vivo, Heteranthera limosa; conditions: Flood
In short: (§2)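 Plants grown to the 2-leaf stage; pots flooded to 3 cm above soil and compound applied directly into the paddy water, depth kept throughout. Greenhouse 13 to 15 days, then visual rating vs untreated controls on 0–100 scale (0 no effect, 100 complete control); dash means no result.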

[5] = tested on: sedge, umbrella; experiment: Test C flooded paddy test; assay type: in vivo, Cyperus difformis; conditions: Flood
In short: as §2

[6] = tested on: galium; experiment: Test A postemergence herbicide test; assay type: in vivo, Galium aparine; conditions: for Plant response rating, Galium: 125 g ai/ha, 0 to 100 scale; for Galium plant response rating (0 to 100 scale, 0 is no effect, 100 is complete control): 500 g ai/ha
In short: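 Injury was rated visually about 10 days after treatment on a 0 (no effect) to 100 (complete control) scale, compared with untreated plants. Test chemicals were sprayed postemergence onto greenhouse plants 2–10 cm high at one to two leaves, grown in a loam–sand blend.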

[7] = tested on: ryegrass, Italian; experiment: Test A pre-/postemergence herbicide test; assay type: in vivo, Lolium multiflorum; conditions: for Plant response rating, Ryegrass, Italian: 0 to 100 scale
In short: as §1

[8] = tested on: kochia; experiment: Test A pre-/postemergence herbicide test; assay type: in vivo, Kochia scoparia; conditions: for Plant response rating, Kochia: 0 to 100 scale
In short: as §1

[9] = tested on: ragweed; experiment: Test A pre-/postemergence herbicide test; assay type: in vivo, Ambrosia elatior; conditions: for Plant response rating, Ragweed: 0 to 100 scale
In short: as §1

[10] = Postemergence, 125 g ai/ha, 0 to 100 scale, 0 no effect, 100 complete control
[11] = Postemergence, 500 g ai/ha, 0 to 100 scale (0 no effect, 100 complete control)
[12] = Preemergence, 125 g ai/ha, visual rating on 0 to 100 scale (0 no effect, 100 complete control)
[13] = preemergence, 500 g ai/ha, 0 to 100 scale
[14] = 31 g ai/ha, scale of 0 to 100 where 0 is no effect and 100 is complete control, 13 to 15 days
[15] = 62 g ai/ha, scale of 0 to 100 where 0 is no effect and 100 is complete control, 13 to 15 days
[16] = 125 g ai/ha, scale of 0 to 100 where 0 is no effect and 100 is complete control, 13 to 15 days
[17] = 125 g ai/ha, visual rating, 0 no effect, 100 complete control, approximately 10 days, preemergence
[18] = Postemergence, 125 g ai/ha, 0 no effect, 100 complete control
[19] = 125 g ai/ha, visual rating, 0 to 100 scale, 0 no effect, 100 complete control, approximately 10 days, preemergence
[20] = Postemergence, 125 g ai/ha, 0 to 100 scale, 0 is no effect, 100 is complete control
[21] = preemergence, 500 g ai/ha, 0 to 100 scale, 0 is no effect and 100 is complete control
[22] = Postemergence, 125 g ai/ha, 0 is no effect, 100 is complete control
[23] = preemergence, 500 g ai/ha, 0 is no effect and 100 is complete control
[24] = 250 g ai/ha, scale of 0 to 100 where 0 is no effect and 100 is complete control, 13 to 15 days
[25] = Preemergence, 125 g ai/ha, 0 to 100 scale where 0 is no effect and 100 is complete control

Row | SMILES | Plant response rating, Morningglory [1, 11] | Plant response rating, Crabgrass, Large [2, 11] | Plant response rating, Ducksalad [4, 14] | Plant response rating, Ducksalad [4, 15] | Plant response rating, Ducksalad [4, 16] | Plant response rating, Ducksalad ([4]; 250 g ai/ha, scale 0 to 100) | Plant response rating, Sedge, Umbrella [5, 14] | Plant response rating, Sedge, Umbrella [5, 15] | Plant response rating, Sedge, Umbrella [5, 16] | Plant response rating, Sedge, Umbrella ([5]; 250 g ai/ha, scale 0 to 100) | Plant response rating, Morningglory [1, 21] | Plant response rating, Crabgrass, Large [2, 20] | Plant response rating, Crabgrass, Large [2, 21] | Plant response rating, Velvetleaf [3, 21] | Plant response rating, Ducksalad ([4]; 500 g ai/ha, scale 0 to 100) | Plant response rating, Ducksalad ([4]; 1000 g ai/ha, scale 0 to 100) | Plant response rating, Sedge, Umbrella ([5]; 500 g ai/ha, scale 0 to 100) | Plant response rating, Sedge, Umbrella ([5]; 1000 g ai/ha, scale 0 to 100) | Plant response rating, Ducksalad [4, 24] | Plant response rating, Sedge, Umbrella [5, 24] | also measured
1 | O=C1NCC(c2ccc(F)cc2)C1C(=O)Nc1ccccc1F (racemic) [Compound 16] | 10 | 90 | 0 | 40 | 85 | 100 | 0 | 0 | 0 | 0 |  |  |  |  |  |  |  |  |  |  | Plant response rating, Morningglory [1, 10]: 0; Morningglory plant response rating [1, 12]: 0; Plant response rating, Morningglory [1, 13]: 0; Plant response rating, Crabgrass, Large [2, 10]: 90; Crabgrass, Large plant response rating [2, 12]: 90; Plant response rating, Crabgrass, Large [2, 13]: 90; Plant response rating, Velvetleaf [3, 10]: 0; Plant response rating, Velvetleaf [3, 11]: 0; Velvetleaf plant response rating [3, 12]: 0; Plant response rating, Velvetleaf [3, 13]: 0
2 | O=C1NCC(c2ccc(F)cc2)C1C(=O)Nc1cccc(F)c1F (racemic) [Compound 119] |  |  | 100 | 100 | 100 | 100 | 0 | 0 | 0 | 0 |  |  |  |  |  |  |  |  |  |  | Plant response rating, Galium ([6]; 0 no effect, 100 complete control): 30; Galium plant response rating (0 to 100 scale, 0 is no effect, 100 is complete control) [6]: 50; Plant response rating, Ryegrass, Italian [7, 17]: 20; Plant response rating, Ryegrass, Italian [7, 18]: 20; Ryegrass, Italian plant response rating (0 to 100 scale, 0 is no effect, 100 is complete control) ([7]; Postemergence, 500 g ai/ha): 40; Plant response rating, Ryegrass, Italian ([7]; preemergence, 500 g ai/ha): 60; Plant response rating, Kochia [8, 17]: 40; Plant response rating, Kochia [8, 18]: 40; Kochia plant response rating (0 to 100 scale, 0 is no effect, 100 is complete control) ([8]; Postemergence, 500 g ai/ha): 50; Plant response rating, Kochia ([8]; preemergence, 500 g ai/ha): 60; Plant response rating, Ragweed [9, 17]: 70; Plant response rating, Ragweed [9, 18]: 20; Ragweed plant response rating (0 to 100 scale, 0 is no effect, 100 is complete control) ([9]; Postemergence, 500 g ai/ha): 30; Plant response rating, Ragweed ([9]; preemergence, 500 g ai/ha): 80
3 | O=C1NCC(c2cccc(C(F)(F)F)c2)C1C(=O)Nc1ccccc1Cl (racemic) [Compound 189] |  |  |  |  | 75 | 80 |  |  | 0 | 0 | 0 | 60 | 90 | 0 | 95 | 100 | 0 | 0 |  |  | Plant response rating, Morningglory [1, 19]: 0; Plant response rating, Morningglory [1, 20]: 0; Morningglory plant response rating (0 to 100 scale, 0 is no effect, 100 is complete control) ([1]; Postemergence, 500 g ai/ha): 0; Plant response rating, Crabgrass, Large [2, 19]: 90; Crabgrass, Large plant response rating (0 to 100 scale, 0 is no effect, 100 is complete control) ([2]; Postemergence, 500 g ai/ha): 80; Plant response rating, Velvetleaf [3, 19]: 0; Plant response rating, Velvetleaf [3, 20]: 0; Velvetleaf plant response rating (0 to 100 scale, 0 is no effect, 100 is complete control) ([3]; Postemergence, 500 g ai/ha): 0
4 | O=C1NCC(c2cccc(C(F)F)c2)C1C(=O)Nc1cccc(F)c1F (racemic) [Compound 211] |  |  |  |  | 60 |  |  |  | 0 |  |  |  |  |  | 75 | 100 | 0 | 30 | 100 | 0 | Plant response rating, Galium ([6]; 0 is no effect, 100 is complete control): 60; Galium plant response rating (0 to 100 scale, 0 is no effect, 100 is complete control) [6]: 70; Plant response rating, Ryegrass, Italian [7, 17]: 0; Plant response rating, Ryegrass, Italian [7, 22]: 30; Ryegrass, Italian plant response rating (0 to 100 scale, 0 is no effect, 100 is complete control) ([7]; Postemergence, 500 g ai/ha): 60; Plant response rating, Ryegrass, Italian [7, 23]: 40; Plant response rating, Kochia [8, 17]: 40; Plant response rating, Kochia [8, 22]: 40; Kochia plant response rating (0 to 100 scale, 0 is no effect, 100 is complete control) ([8]; Postemergence, 500 g ai/ha): 60; Plant response rating, Kochia [8, 23]: 70; Plant response rating, Ragweed [9, 17]: 30; Plant response rating, Ragweed [9, 22]: 0; Ragweed plant response rating (0 to 100 scale, 0 is no effect, 100 is complete control) ([9]; Postemergence, 500 g ai/ha): 30; Plant response rating, Ragweed [9, 23]: 80
5 | O=C1NCC(c2ccc(C(F)(F)F)c(F)c2)C1C(=O)Nc1cccc(F)c1F (racemic) [Compound 247] | 0 | 70 |  |  |  |  |  |  |  |  | 0 | 50 | 90 | 0 | 85 | 100 | 0 | 0 | 75 | 0 | Plant response rating, Morningglory [1, 20]: 0; Plant response rating, Morningglory [1, 25]: 0; Plant response rating, Crabgrass, Large [2, 25]: 90; Plant response rating, Velvetleaf [3, 20]: 0; Plant response rating, Velvetleaf [3, 11]: 0; Plant response rating, Velvetleaf [3, 25]: 0; Plant response rating, Ducksalad ([4]; 2000 g ai/ha, scale 0 to 100): 100; Plant response rating, Sedge, Umbrella ([5]; 2000 g ai/ha, scale 0 to 100): 0
6 | O=C1NCC(c2ccc(C(F)(F)F)nc2)C1C(=O)Nc1cccc(F)c1F (racemic) [Compound 263] | 60 | 90 | 70 | 90 | 100 |  | 0 | 0 | 0 |  | 0 | 80 | 100 | 50 |  |  |  |  | 100 | 0 | Plant response rating, Morningglory [1, 25]: 0; Plant response rating, Crabgrass, Large [2, 25]: 90; Plant response rating, Velvetleaf [3, 25]: 50
